Tests used:
Format in all cases: cell-based
A375 = assay: Cell viability assay (CellTiterGlo), A375; conditions: Homo sapiens, A-375; A375, origin Skin; 72 h
Protocol: (§1) The test compounds and bortezomib (positive control) were solved in DMSO as 5 mM solution, which was aliquoted, frozen at −20° C. and thawed just prior addition by nanodrop dispensing. Compound treatment of cells started one day after seeding with a final DMSO concentration of 0.1% and was generally performed by nanodrop-dispensing using a Tecan Dispenser. 0.1% DMSO (solvent) and Staurosporine (1.0E-05 M) served as high control (100% viability) and low control (0% viability), respectively.
(§2) Cells were cultured in different media. For the assays, cells were seeded in white cell culture-treated flat and clear bottom multiwell plates and incubated at 37° C. before the compound was added. After incubation for 72 h at 37° C. at 5% or 10% CO2 dependent on the medium, cell plates were equilibrated to room temperature for one hour, CellTiterGlo reagent (Promega) was added and luminescence was measured ap-proximately an hour later using a luminometer.
(§3) Raw data were converted into percent cell viability relative to the high and low control, which were set to 100% and 0%, respectively. IC50 calculation was performed using GraphPad Prism software with a variable slope sigmoidal response fitting model using 0% viability as bottom constraint and 100% viability as top constraint.

DU-145 = assay: Cell viability assay (CellTiterGlo), DU-145; conditions: Homo sapiens; DU-145, origin Prostate; 72 h
Protocol: as §1, §2, §3

MV4-11 = assay: Cell viability assay (CellTiterGlo), MV4-11; conditions: Homo sapiens; MV4-11, origin AML; 72 h
Protocol: as §1, §2, §3

NCI-H2286 = assay: Cell viability assay (CellTiterGlo), NCI-H2286; conditions: Homo sapiens; NCI-H2286, origin NSCLC; 72 h
Protocol: as §1, §2, §3

H460 = assay: Cell viability assay (CellTiterGlo), H460; conditions: Homo sapiens, NCI-H460; H460, origin NSCLC; 72 h
Protocol: as §1, §2, §3

IC50 (A375): 8.5 nM
IC50 (DU-145): 11 nM
IC50 (MV4-11): 3.8 nM
IC50 (NCI-H2286): 6.6 nM
IC50 (H460): 16 nM
Structure (SMILES): CC(C)C[C@H](NC(=O)[C@H](Cc1ccccc1)NC(=O)c1cnccn1)B(O)O [Bortezomib, bortezomib]

Source: patent publication US20220281910A1, “DINUCLEOTIDE COMPOUNDS FOR TREATING CANCERS AND MEDICAL USES THEREOF” (PINOTBIO, INC., priority 2019, published 2022)
